According to US20160297830A1, “NOVEL COMPOUNDS USEFUL FOR THE TREATMENT OF BACTERIAL INFECTIOUS DISEASES” (GALAPAGOS NV, priority 2013, published 2016):
In brackets after ≈: the same amount, converted by molar mass. Where two headings read alike, the source gives them in different places.

Legend:
S. aureus Sa1 ATCC 13709 = assay: microbe, parasite or virus in culture; format: cell-based; details: Staphylococcus aureus, ATCC13709, read-out: MIC Sa1
[1] = tested on: S. aureus Sa26 ATCC 25923; assay: Antibacterial activity assay (MIC), S. aureus Sa26; format: cell-based; details: Staphylococcus aureus
S. aureus Sa4 NCTC 6571 = assay: Antibacterial activity assay (MIC), S. aureus Sa4; format: cell-based; details: Staphylococcus aureus, NCTC6571, read-out: MIC Sa4
[2] = tested on: S. aureus Sa2 clinical strain NCIMB 41953, MRSA; assay: microbe, parasite or virus in culture; format: cell-based; details: Staphylococcus aureus, read-out: MIC Sa2
[3] = tested on: H. influenza Hi3 ATCC 31517; assay: organism not typed; format: cell-based; details: read-out: MIC Hi3
[4] = tested on: H. influenza Hi10 clinical strain; assay: organism not typed; format: cell-based; details: read-out: MIC Hi10
[5] = tested on: H. influenza Hi47 clinical strain, Ampicillin Resistant; assay: organism not typed; format: cell-based; details: read-out: MIC Hi47
[6] = tested on: H. influenza Hi106 ATCC 51907; assay: organism not typed; format: cell-based; details: read-out: MIC Hi106
E. coli Ec1 ATCC 25922 = assay: Antibacterial activity assay (MIC), E. coli Ec1; format: cell-based; details: Escherichia coli, ATCC25922, read-out: MIC Ec1
[7] = tested on: E. coli Ec50 efflux pump KO; assay: microbe, parasite or virus in culture; format: cell-based; details: Escherichia coli, read-out: MIC Ec50 efflux pump KO
[8] = tested on: E. coli Ec113 efflux pump KO; assay: microbe, parasite or virus in culture; format: cell-based; details: Escherichia coli, read-out: MIC Ec113 efflux pump KO
[9] = target: DNA Polymerase IIIα (DnaE) from Staphylococcus aureus (Staphylococcus aureus, UniProt Q6GG04); assay: biochemical
DNA III Polymerase E = DNA III Polymerase E (Escherichia coli, UniProt P10443); assay: In vitro activity against DNA III Polymerase E, E. coli; format: biochemical; details: DNA polymerase III, E. coli; read-out: IC50 semiquantitative scoring, E. coli
How it was run: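 Recombinant enzyme (0.47 μg/mL diluted stock) in 20 mM Tris pH7.5, 8 mM DTT, 10 mM MgOAc, 0.05% CHAPS met compound series from 100 μM top, 1/5 steps. Activated calf thymus DNA, dNTPs and [α-33P]-dTTP substrate were added, and incubation ran 120 min at 30° C. IC50 came from filter-captured incorporated radioactivity versus controls.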

[10] = tested on: Methicillin Resistant S. aureus Sa2 (MRSA); assay: animal or person; format: in vivo; details: lung
[11] = tested on: Methicillin Resistant S. aureus Sa2 (MRSA); format: in vivo; details: Groin Sa, Study 2; 50 mg/kg PO BID; sample time 31 h post infection
[12] = tested on: Methicillin Resistant S. aureus (MRSA); assay: Neutropenic mouse thigh infection model; details: Thigh Sa
[13] = Study 2, 50 mg/kg IP BID, sample time 7 h PI
[14] = Study 4, 5 mg/kg IP BID, sample time 24 h PI
[15] = Study 4, 15 mg/kg IP BID, sample time 24 h PI
[16] = Study 4, 50 mg/kg IP BID, sample time 24 h PI
[17] = Study 5, 5 mg/kg IV BID, sample time 24 h PI
[18] = Study 6, 25 mg/kg IV BID, sample time 24 h PI
[19] = Study 7, 15 mg/kg PO BID, sample time 24 h PI
[20] = Study 7, 50 mg/kg PO BID, sample time 24 h PI
[21] = Study 8, 50 mg/kg PO QD, sample time 48 h PI

DNA Polymerase IIIα (DnaE) from Staphylococcus aureus, sequence (Q6GG04 1-1022): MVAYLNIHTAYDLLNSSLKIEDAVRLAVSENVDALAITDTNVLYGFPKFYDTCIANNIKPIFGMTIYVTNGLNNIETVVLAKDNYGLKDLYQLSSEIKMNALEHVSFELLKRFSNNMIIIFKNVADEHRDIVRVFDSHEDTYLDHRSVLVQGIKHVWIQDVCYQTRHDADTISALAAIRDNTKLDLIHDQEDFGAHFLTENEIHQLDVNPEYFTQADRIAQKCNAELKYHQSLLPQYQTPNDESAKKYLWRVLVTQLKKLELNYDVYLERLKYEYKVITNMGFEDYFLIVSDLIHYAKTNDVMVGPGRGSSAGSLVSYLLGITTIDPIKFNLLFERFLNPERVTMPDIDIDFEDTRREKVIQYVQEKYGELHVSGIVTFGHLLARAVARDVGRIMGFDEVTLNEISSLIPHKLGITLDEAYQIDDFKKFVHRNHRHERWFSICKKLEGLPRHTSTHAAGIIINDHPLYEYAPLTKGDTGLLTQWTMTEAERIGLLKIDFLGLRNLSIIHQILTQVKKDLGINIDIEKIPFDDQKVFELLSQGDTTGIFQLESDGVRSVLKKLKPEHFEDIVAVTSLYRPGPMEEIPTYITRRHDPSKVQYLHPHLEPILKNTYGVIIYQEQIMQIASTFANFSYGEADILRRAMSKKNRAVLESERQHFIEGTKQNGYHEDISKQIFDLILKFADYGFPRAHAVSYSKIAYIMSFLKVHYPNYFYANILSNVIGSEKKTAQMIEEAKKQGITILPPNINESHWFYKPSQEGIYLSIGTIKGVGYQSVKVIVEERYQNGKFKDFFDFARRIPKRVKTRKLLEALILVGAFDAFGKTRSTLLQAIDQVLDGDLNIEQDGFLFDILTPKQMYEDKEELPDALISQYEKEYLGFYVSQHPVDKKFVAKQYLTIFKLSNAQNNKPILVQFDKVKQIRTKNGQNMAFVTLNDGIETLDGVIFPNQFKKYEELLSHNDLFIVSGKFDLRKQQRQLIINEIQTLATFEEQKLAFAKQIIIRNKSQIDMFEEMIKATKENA
DNA III Polymerase E, sequence (P10443 whole entry): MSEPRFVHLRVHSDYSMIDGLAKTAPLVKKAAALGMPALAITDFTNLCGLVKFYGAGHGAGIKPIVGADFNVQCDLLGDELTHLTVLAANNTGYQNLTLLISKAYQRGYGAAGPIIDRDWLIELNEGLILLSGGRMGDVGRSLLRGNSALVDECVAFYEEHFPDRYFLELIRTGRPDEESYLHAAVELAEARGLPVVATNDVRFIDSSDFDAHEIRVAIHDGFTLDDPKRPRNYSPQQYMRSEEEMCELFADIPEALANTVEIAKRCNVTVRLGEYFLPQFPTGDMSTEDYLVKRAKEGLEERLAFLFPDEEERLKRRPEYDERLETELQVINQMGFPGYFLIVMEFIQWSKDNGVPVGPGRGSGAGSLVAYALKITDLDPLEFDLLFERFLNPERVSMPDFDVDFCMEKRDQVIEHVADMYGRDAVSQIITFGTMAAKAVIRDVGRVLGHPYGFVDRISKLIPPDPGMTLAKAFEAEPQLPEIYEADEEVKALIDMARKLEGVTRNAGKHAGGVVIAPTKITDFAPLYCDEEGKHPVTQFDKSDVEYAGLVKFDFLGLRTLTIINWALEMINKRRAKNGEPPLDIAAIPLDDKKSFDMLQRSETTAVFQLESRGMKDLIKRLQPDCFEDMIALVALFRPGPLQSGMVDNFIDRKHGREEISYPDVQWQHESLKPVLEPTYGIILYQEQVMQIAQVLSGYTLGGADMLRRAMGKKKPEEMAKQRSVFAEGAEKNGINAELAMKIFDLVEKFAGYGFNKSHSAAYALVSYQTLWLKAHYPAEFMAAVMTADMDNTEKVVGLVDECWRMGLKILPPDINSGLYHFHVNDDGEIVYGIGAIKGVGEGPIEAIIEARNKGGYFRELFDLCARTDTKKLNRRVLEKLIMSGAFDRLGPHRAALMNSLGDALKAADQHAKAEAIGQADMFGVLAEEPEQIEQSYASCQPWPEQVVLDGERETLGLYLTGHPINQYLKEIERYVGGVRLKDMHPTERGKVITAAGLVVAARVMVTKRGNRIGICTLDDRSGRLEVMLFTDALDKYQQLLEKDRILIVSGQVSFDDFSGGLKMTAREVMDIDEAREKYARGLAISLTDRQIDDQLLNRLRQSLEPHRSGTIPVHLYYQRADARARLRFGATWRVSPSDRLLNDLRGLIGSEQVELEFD

**Q.** What does the source list for `COC[C@@H]1[C@@H](O)[C@@H]2[C@H]3C=C[C@@H]4[C@@H](COC)C(=O)O[C@H]([C@H](O)COC)[C@H](C)/C=C(\C)[C@@]24O[C@H]3[C@@H]1OC(=O)c1ccc[nH]1` [Compound 2, 8-O-1H-pyrrole-2′-carbonylbranimycin]?
**A.** MIC (S. aureus Sa1 ATCC 13709): 1 µg/mL (≈ 1.74 µM); MIC ([1]; ATCC25923, read-out: MIC Sa26): 1 µg/mL (≈ 1.74 µM); MIC ([1]; ATCC25923, read-out: MIC Sa26 + 10% SH): 1 µg/mL; MIC ([1]; ATCC25923, read-out: MIC Sa26 + 50% SH): 2 µg/mL; MIC (S. aureus Sa4 NCTC 6571): 1 µg/mL (≈ 1.74 µM); MIC [2]: 0.5 µg/mL (≈ 0.869 µM); MIC [3]: > 64 µg/mL; MIC [4]: > 64 µg/mL; MIC [5]: > 64 µg/mL; MIC [6]: > 64 µg/mL; MIC (E. coli Ec1 ATCC 25922): > 64 µg/mL; MIC [7]: 16 µg/mL (≈ 27.8 µM); MIC [8]: 1 µg/mL (≈ 1.74 µM); IC50 [9]: 1.74 to 1740 nM; IC50 (DNA III Polymerase E): 1740 to 17400 nM; log reduction at 50 mg/kg ([10]; Staphylococcus aureus, MRSA, in Mus musculus, po, 24 h, read-out: Log reduction vs. untreated, Study 1, 50 mg/kg PO BID, sample 24 h post infection): 3.36; log reduction at 15 mg/kg ([10]; Staphylococcus aureus, MRSA, in Mus musculus, po, 24 h, read-out: Log reduction vs. untreated, Study 2, 15 mg/kg PO BID, sample 24 h post infection): 3.91; log reduction at 50 mg/kg ([10]; Staphylococcus aureus, MRSA, in Mus musculus, po, 24 h, read-out: Log reduction vs. untreated, Study 2, 50 mg/kg PO BID, sample 24 h post infection): 2.99; log reduction at 6.25 mg/kg ([10]; Staphylococcus aureus, MRSA, in Mus musculus, po, 24 h, read-out: Log reduction vs. untreated, Study 4, 6.25 mg/kg PO BID, sample 24 h post infection): 0.04; log reduction at 12.5 mg/kg ([10]; Staphylococcus aureus, MRSA, in Mus musculus, po, 24 h, read-out: Log reduction vs. untreated, Study 4, 12.5 mg/kg PO BID, sample 24 h post infection): 1.9; log reduction at 25 mg/kg ([10]; Staphylococcus aureus, MRSA, in Mus musculus, po, 24 h, read-out: Log reduction vs. untreated, Study 4, 25 mg/kg PO BID, sample 24 h post infection): 3.48; log reduction at 5 mg/kg ([10]; Staphylococcus aureus, MRSA, in Mus musculus, po, 72 h, read-out: Log reduction vs. untreated, Study 5, 5 mg/kg PO QD, sample 72 h post infection): 1.57; log reduction at 15 mg/kg ([10]; Staphylococcus aureus, MRSA, in Mus musculus, po, 72 h, read-out: Log reduction vs. untreated, Study 5, 15 mg/kg PO QD, sample 72 h post infection): 3.62; log reduction at 25 mg/kg ([10]; Staphylococcus aureus, MRSA, in Mus musculus, po, 72 h, read-out: Log reduction vs. untreated, Study 6, 25 mg/kg PO QD, sample 72 h post infection): 3.65; Active ([10]; Study 1, 50 mg/kg PO BID, sample 24 h post infection): Y; Active ([10]; Study 2, 15 mg/kg PO BID, sample 24 h post infection): Y; Active ([10]; Study 2, 50 mg/kg PO BID, sample 24 h post infection): Y; Active ([10]; Study 4, 6.25 mg/kg PO BID, sample 24 h post infection): N; Active ([10]; Study 4, 12.5 mg/kg PO BID, sample 24 h post infection): Y; Active ([10]; Study 4, 25 mg/kg PO BID, sample 24 h post infection): Y; Active ([10]; Study 5, 5 mg/kg PO QD, sample 72 h post infection): Y; Active ([10]; Study 5, 15 mg/kg PO QD, sample 72 h post infection): Y; Active ([10]; Study 6, 25 mg/kg PO QD, sample 72 h post infection): Y; Active [11]: Y; Log reduction vs. untreated [11]: −2.52; Active [12, 13]: Y; Log reduction vs. untreated [12, 13]: −3.55; Active [12, 14]: N; Log reduction vs. untreated [12, 14]: −1.16; Active [12, 15]: Y; Log reduction vs. untreated [12, 15]: −3.32; Active [12, 16]: Y; Log reduction vs. untreated [12, 16]: −4.74; Active [12, 17]: N; Log reduction vs. untreated [12, 17]: −0.13; Active [12, 18]: Y; Log reduction vs. untreated [12, 18]: −3.92; Active [12, 19]: Y; Log reduction vs. untreated [12, 19]: −4.13; Active [12, 20]: Y; Log reduction vs. untreated [12, 20]: −6.72; Active [12, 21]: Y; Log reduction vs. untreated [12, 21]: −4.63
